Read-outs that look alike come from different tables or passages of the source.
Tests used:
Assay type in all cases: cell-based
[1] = tested on: NCI-H23 (human lung cancer); test: In vitro cytotoxicity, SRB assay, NCI-H23; details: for IC50: Homo sapiens; for NCI-H23 SI: selectivity coefficient vs normal BALB/3T3 cells
[2] = tested on: PFSK-1 (malignant primitive neuroectodermal tumour); test: In vitro cytotoxicity, SRB assay, PFSK-1; details: for IC50: Homo sapiens; for PFSK-1 SI: selectivity coefficient vs normal BALB/3T3 cells
[3] = tested on: A2780 (human ovarian cancer); test: In vitro cytotoxicity, SRB assay, A2780; details: for IC50: Homo sapiens; for A2780 SI: selectivity coefficient vs normal BALB/3T3 cells
[4] = tested on: A2780Cis (cisplatin-resistant human ovarian cancer); test: In vitro cytotoxicity, SRB assay, A2780Cis; details: for IC50: Homo sapiens, A2780cis
[5] = tested on: A375 (human melanoma); test: In vitro cytotoxicity, SRB assay, A375; details: for IC50: Homo sapiens; for A375 SI: selectivity coefficient vs normal BALB/3T3 cells
[6] = tested on: Hs294T (human melanoma); test: cells; details: for IC50: Homo sapiens, Hs 294T, 72 h with compound, SRB, n/a = non-active compound, read-out: Hs294T IC50; for Hs294T SI: selectivity coefficient vs normal BALB/3T3 cells
[7] = tested on: PLC/PRF/5 (human liver cancer); test: cells; details: for IC50: Homo sapiens, PLC-PRF-5, 72 h with compound, SRB, n/a = non-active compound, read-out: PLC/PRF/5 IC50; for PLC/PRF/5 SI: selectivity coefficient vs normal BALB/3T3 cells
[8] = tested on: SNU-16 (human gastric cancer); test: cells; details: for IC50: Homo sapiens, SNU-16, 72 h with compound, MTT, n/a = non-active compound, read-out: SNU-16 IC50; for SNU-16 SI: selectivity coefficient vs normal BALB/3T3 cells
[9] = tested on: KG-1 (human acute myeloid leukaemia); test: In vitro cytotoxicity, MTT assay, KG-1; details: for IC50: Homo sapiens, 72 h with compound, MTT, n/a = non-active compound; for KG-1 SI: selectivity coefficient vs normal BALB/3T3 cells
[10] = tested on: MIA PaCa-2 (human pancreatic cancer); test: cells; details: for IC50: Homo sapiens, MIA PaCa-2, 72 h with compound, SRB, n/a = non-active compound, read-out: MIA PaCa-2 IC50; for MIA PaCa-2 SI: selectivity coefficient vs normal BALB/3T3 cells
[11] = tested on: BALB/3T3 (normal mouse fibroblasts); test: In vitro cytotoxicity, SRB assay, normal BALB/3T3 fibroblasts
[12] = tested on: cancer cells; test: In vitro cytotoxic activity on the panel of cancer cell lines (MTT/SRB), general statements; details: for anti-proliferative effect compared to that of the parent compound: Tables 3.1, 3.2, 4 and 5, parent compound salinomycin
[13] = tested on: MV-4-11 (human biphenotypic leukaemia); test: In vitro cytotoxicity, MTT assay, MV-4-11; details: for IC50: Homo sapiens, MV4-11, read-out: IC50 (nM) MV4-11
[14] = NCI-H23, 72 h with compound, SRB, n/a = non-active compound, read-out: NCI-H23 IC50
[15] = PFSK-1, 72 h with compound, SRB, n/a = non-active compound, read-out: PFSK-1 IC50
[16] = A2780, 72 h with compound, SRB, n/a = non-active compound, read-out: A2780 IC50
[17] = 72 h, read-out: A2780Cis IC50 (nM)
[18] = A-375, 72 h with compound, SRB, n/a = non-active compound, read-out: A375 IC50
[19] = Mus musculus, BALB/3T3, normal cells, 72 h with compound, SRB, n/a = non-active compound, read-out: BALB/3T3 IC50
[20] = Table 5, BALB/3T3 normal mouse fibroblasts, read-out: IC50 (nM) BALB3T3 normal cells

SMILES	NCI-H23 SI [1]	PFSK-1 SI [2]	A2780 SI [3]	A2780Cis RI [4]	A2780Cis SI [4]	IC50 [4, 17]	A375 SI [5]	IC50 [6]	Hs294T SI [6]	IC50 [7]	PLC/PRF/5 SI [7]	IC50 [8]	SNU-16 SI [8]	IC50 [9]	KG-1 SI [9]	IC50 [10]	MIA PaCa-2 SI [10]	anti-proliferative effect compared to that of the parent compound [12]	SI A2780Cis [4]	IC50 [11, 20]	other results
CC[C@@H](C(=O)[C@@H](C)[C@@H](O)[C@H](C)[C@@H]1O[C@@H]([C@@H](CC)C(=O)O)CC[C@@H]1C)[C@H]1O[C@]2(C=C[C@@H](NC(=O)NC3CCC3)[C@]3(CC[C@@](C)([C@H]4CC[C@](O)(CC)[C@H](C)O4)O3)O2)[C@H](C)C[C@@H]1C [FLC-00341-1 Na]	0.3	1.9	59.2	0.8	73.9	1.3 nM	0.3	1640 nM	0.1	54.5 nM	1.8	27.1 nM	3.5	45.9 nM	2.1	55.4 nM	1.7	several times more potent compared to that of the parent compound	–	–	IC50 [1, 14]: 318 nM; IC50 [2, 15]: 51.6 nM; IC50 [3, 16]: 1.62 nM; IC50 [5, 18]: 293 nM; IC50 [11, 19]: 96.2 nM
CC[C@@H](C(=O)[C@@H](C)[C@@H](O)[C@H](C)[C@@H]1O[C@@H]([C@@H](CC)C(=O)O)CC[C@@H]1C)[C@H]1O[C@]2(C=C[C@@H](NC(=O)Nc3ccccc3)[C@]3(CC[C@@](C)([C@H]4CC[C@](O)(CC)[C@H](C)O4)O3)O2)[C@H](C)C[C@@H]1C [FLC-00374-1]	24.1	18.4	156.6	0.2	671.0	0.11 nM	2.1	73.1 nM	1.0	8.83 nM	8.0	4.03 nM	17.5	12.5 nM	5.6	28.7 nM	2.5	several times more potent compared to that of the parent compound	671.0	70.5 nM	IC50 [1, 14]: 2.92 nM; IC50 [2, 15]: 3.83 nM; IC50 [3, 16]: 0.45 nM; IC50 ([4]; read-out: IC50 (nM) A2780Cis): 0.11 nM; IC50 [5, 18]: 34.2 nM; IC50 [11, 19]: 70.5 nM; biological properties (IC50, SI) compared to the corresponding epi compounds ([12]; table 5 comparative examples, retained vs inverted C20 configuration): improved biological properties compared to their counterparts with a configuration conversion
CC[C@@H](C(=O)[C@@H](C)[C@@H](O)[C@H](C)[C@@H]1O[C@@H]([C@@H](CC)C(=O)O)CC[C@@H]1C)[C@H]1O[C@]2(C=C[C@@H](NC(=S)Nc3ccc(C(F)(F)F)cc3)[C@]3(CC[C@@](C)([C@H]4CC[C@](O)(CC)[C@H](C)O4)O3)O2)[C@H](C)C[C@@H]1C [FLC-00347-1]	13.3	16.1	79.0	0.3	264.7	0.28 nM	0.8	103 nM	0.7	5.87 nM	12.5	13.5 nM	5.4	14.1 nM	5.2	44.3 nM	1.7	several times more potent compared to that of the parent compound	–	–	IC50 [1, 14]: 5.51 nM; IC50 [2, 15]: 4.54 nM; IC50 [3, 16]: 0.93 nM; IC50 [5, 18]: 91.2 nM; IC50 [11, 19]: 73.2 nM
CC[C@@H](C(=O)[C@@H](C)[C@@H](O)[C@H](C)[C@@H]1O[C@@H]([C@@H](CC)C(=O)O)CC[C@@H]1C)[C@H]1O[C@]2(C=C[C@@H](NC(=S)NCc3ccccc3)[C@]3(CC[C@@](C)([C@H]4CC[C@](O)(CC)[C@H](C)O4)O3)O2)[C@H](C)C[C@@H]1C [FLC-00346-1]	1.1	2.7	96.4	0.2	487.1	0.14 nM	0.2	388 nM	0.2	5.8 nM	11.9	4.52 nM	15.2	20.9 nM	3.3	43.3 nM	1.6	several times more potent compared to that of the parent compound	–	–	IC50 ([1]; NCI-H23, 72 h, read-out: NCI-H23 IC50 (nM)): 60.3 nM; IC50 ([2]; PFSK-1, 72 h, read-out: PFSK-1 IC50 (nM)): 25.1 nM; IC50 ([3]; A2780, 72 h, read-out: A2780 IC50 (nM)): 0.71 nM; IC50 ([5]; A-375, 72 h, read-out: A375 IC50 (nM)): 393 nM; IC50 [11, 19]: 68.8 nM
CC[C@@H](C(=O)[C@@H](C)[C@@H](O)[C@H](C)[C@@H]1O[C@@H]([C@@H](CC)C(=O)O)CC[C@@H]1C)[C@H]1O[C@]2(C=C[C@@H](NC(=O)C(C)(C)CCl)[C@]3(CC[C@@](C)([C@H]4CC[C@](O)(CC)[C@H](C)O4)O3)O2)[C@H](C)C[C@@H]1C [FLC-00473-1•Na]	–	–	–	–	–	–	–	–	–	–	–	–	–	–	–	–	–	several times more potent compared to that of the parent compound	179.1	129 nM	IC50 ([4]; read-out: IC50 (nM) A2780Cis): 0.72 nM; SI MV4-11 [13]: 62.7; IC50 [13]: 2.05 nM
CC[C@@H](C(=O)[C@@H](C)[C@@H](O)[C@H](C)[C@@H]1O[C@@H]([C@@H](CC)C(=O)O)CC[C@@H]1C)[C@H]1O[C@]2(C=C[C@@H](NC(=S)NC(C)(C)C)[C@]3(CC[C@@](C)([C@H]4CC[C@](O)(CC)[C@H](C)O4)O3)O2)[C@H](C)C[C@@H]1C [FLC-00467-1•Na]	–	–	–	–	–	–	–	–	–	–	–	–	–	–	–	–	–	several times more potent compared to that of the parent compound	≈853700	85.4 nM	SI MV4-11 [13]: ≈853700
CC[C@@H](C(=O)[C@@H](C)[C@@H](O)[C@H](C)[C@@H]1O[C@@H]([C@@H](CC)C(=O)O)CC[C@@H]1C)[C@H]1O[C@]2(C=C[C@@H](NS(=O)(=O)c3c(C)noc3C)[C@]3(CC[C@@](C)([C@H]4CC[C@](O)(CC)[C@H](C)O4)O3)O2)[C@H](C)C[C@@H]1C [FLC-00506-1•Na]	–	–	–	–	–	–	–	–	–	–	–	–	–	–	–	–	–	several times more potent compared to that of the parent compound	100.3	92.5 nM	IC50 ([4]; read-out: IC50 (nM) A2780Cis): 0.92 nM; SI MV4-11 [13]: 35.3; IC50 [13]: 2.62 nM
CC[C@@H](C(=O)[C@@H](C)[C@@H](O)[C@H](C)[C@@H]1O[C@@H]([C@@H](CC)C(=O)O)CC[C@@H]1C)[C@H]1O[C@]2(C=C[C@@H](NC(=O)NC(C)(C)C)[C@]3(CC[C@@](C)([C@H]4CC[C@](O)(CC)[C@H](C)O4)O3)O2)[C@H](C)C[C@@H]1C [FLC-00593-1•Na]	–	–	–	–	–	–	–	–	–	–	–	–	–	–	–	–	–	several times more potent compared to that of the parent compound	≈7220	72.2 nM	IC50 ([4]; read-out: IC50 (nM) A2780Cis): < 0.01 nM; SI MV4-11 [13]: ≈7220; IC50 [13]: < 0.01 nM

Reference: US20240294541A1, “COMPOUNDS CONSTITUTING C20-MODIFIED SALINOMYCIN DERIVATIVES, A METHOD FOR OBTAINING THE SAME, A COMPOSITION CONTAINING THE SAME AND A USE OF SAID COMPOUNDS” (FILECLO SPOLKA Z OGRANICZONA ODPOWIEDZIALNOSCIA, priority 2021, published 2024)
